Patent US5637595A, “Cyclic ether acetal PAF antagonists” (British Bio-technology Limited, priority 1991, dated 1997)

Assays:
[1] = molecular target: T1, PAF receptor (human platelet plasma membranes) (Homo sapiens, UniProt P25105); test: Inhibition of [^3 H]-PAF receptor binding to human platelet plasma membranes; conditions: [^3 H]-PAF 0.5 nM, 0° C., 1 hour incubation, pH 7.0
T1 construct: Platelet concentrates were obtained from a hospital blood bank; from tissue; host or cells: human platelets (platelet concentrates from a hospital blood bank), lysed membranes
Protocol: The inhibition of [^3 H]-PAF binding to human platelet plasma membranes by compounds of general formula I was determined by isotopic labelling and filtration techniques. Platelet concentrates were obtained from a hospital blood bank. These platelet concentrates (500-2500 ml.) were centrifuged at 800 rpm for 10 minutes in a SORVALL RC3B centrifuge to remove the red blood cells present. (The word SORVALL is a trade mark.) The supernalant was subsequently centrifuged at 3,000 rpm in a SORVALL RC3B centrifuge to pellet the platelets present. The platelet rich pellets were resuspended in a minimum volume of buffer (150 mM NaCl, 10 mM Tris, 2 mM EDTA, pH 7.5) and layered onto Ficoll-Paque gradients, 9 ml platelet concentrate to 2 ml Ficoll, and centrifuged at 1,900 rpm for 15 minutes in a SORVALL RT6000 centrifuge. This step removes the residual red blood cells and other nonspecific material such as lymphocytes from the preparation. The platelets which form a band between the plasma and the Ficoll were removed, resuspended in the above buffer and centrifuged at 3,000 rpm for 10 minutes in a SORVALL RT6000 centrifuge. The pelleted platelets were resuspended in buffer (10 mM Tris, 5mM MgCl2, 2 mM EDTA, pH 7.0), snap freezed in liquid N2 and allowed to thaw slowly at room temperature in order to lyse the platelets. The latter step was repeated at least 3 times to ensure proper lysis. […]

[2] = test system: PAF-induced hypotension in the rat; test: Inhibition of PAF-induced hypotension in the rat; type: in vivo, rat (male Sprague-Dawley); conditions: iv, anaesthetised rats, PAF 100 ng/kg/min i.v. infusion, test compound i.v. bolus, straight line interpolation, read-out: ED50, dose to cause a 50% reversal of the hypotensive PAF response
Protocol: Male Sprague-Dawley rats (300-400 g) were anaesthetised with a mixture of sodium pentobarbitone, 22.5 mg/kg and thiopental 62.5 mg/kg. Through a midline incision in the neck, the trachea was cannulated and the animals breathed spontaneously. A carotid artery was cannulated for the measurement of blood pressure and this signal was used to trigger a rate meter to measure heart rate. Both jugular veins were cannulated: one for the infusion of PAF and the other for the bolus administration of test compounds.
PAF, 100 ng/kg/min was infused i.v. until a sustained fall in mean blood pressure of 50 mmHg was achieved. […] The peak of this reversal was measured and the dose to cause a 50% reversal of the hypotensive PAF response (ED50) calculated by straight line interpolation and the results are presented in Table 2.

T1 sequence (P25105 whole entry): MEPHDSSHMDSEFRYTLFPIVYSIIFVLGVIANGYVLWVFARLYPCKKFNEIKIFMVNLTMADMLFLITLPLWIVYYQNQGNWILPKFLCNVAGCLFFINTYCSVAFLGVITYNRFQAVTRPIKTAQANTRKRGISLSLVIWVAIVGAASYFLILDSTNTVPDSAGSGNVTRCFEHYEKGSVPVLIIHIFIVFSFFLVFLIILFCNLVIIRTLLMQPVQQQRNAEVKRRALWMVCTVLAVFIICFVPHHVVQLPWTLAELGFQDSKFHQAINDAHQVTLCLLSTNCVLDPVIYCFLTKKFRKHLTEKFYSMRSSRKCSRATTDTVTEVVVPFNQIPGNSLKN

| SMILES | IC50 [1] [nM] | ED50 [2] [µg/kg] |
| --- | --- | --- |
| CCCCCCCC1CCC(OCCCn2c(C)nc3cnccc32)O1 (stereo not drawn) [Example 2, O-(3-(2-Methylimidazo[4,5-c]pyrid-1-yl)propyl)-5-n-heptyl-gamma-butyrolactol ether] | 120 | 2.1 |
| CCCCCCCC1CCCC(OCCCn2c(C)nc3cnccc32)O1 (stereo not drawn) [Example 1, O-(3-(2-Methylimidazo[4,5-c]pyrid-1-yl)propyl)-5-n-heptyl-delta-valerolactol ether] | 80 |  |
